Patent US20110124614A1, “Methods And Compositions For The Treatment of Autoimmune Disorders” (priority 2008, published 2011)
Entries after “also recorded” stand apart in the source; their conditions may differ. Marks after values point to notes of the source that are not given here.

How the values were obtained:
Type in all cases: in vivo, mouse
[1] = tested on: EAE in wild-type B6 mice; assay: EAE clinical scoring, G-1 vs E2 pellets at different doses, wild-type B6 mice (Example III); settings: for CDI / Daily / Mortality / Onset / Peak / Incidence: 34 days
[2] = tested on: EAE in wild-type B6 mice; assay: EAE clinical scoring, daily s.c. injection of G-1 or E2, wild-type B6 mice
[3] = tested on: EAE in GPR30KO mice; assay: EAE clinical scoring, G-1 or E2 pellets, GPR30KO mice (Example IV)
[4] = tested on: EAE in PD-1KO mice; assay: EAE clinical scoring, G-1 or E2 pellets, PD-1KO mice (Example IX)
[5] = tested on: CNS infiltration, demyelination and axonal damage in spinal cord of WT EAE mice; assay: Spinal cord histology (H&E, LFB-PAS, SMI312, SMI32), WT EAE mice
Description: Spinal cords were dissected out for histology. Intact spinal columns were removed and dissected after fixation in 4% paraformaldehyde, dehydrated and embedding in paraffin. To examine neuroinflammation, the sections were stained with hematoxylin and eosin (H&E). To examine demyelination, the sections were stained with Luxon fast blue plus periodic acid Schiff (LFB-PAS). The mice from the clinical experiment shown in FIG. 2A were euthanized at the end of the experiment and spinal cords were dissected out for histology. Intact spinal cords were removed and dissected after fixation in 4% paraformaldehyde, dehydrated and embedding in paraffin. To examine neuroinflammation, the sections were stained with hematoxylin and eosin (H&E). To examine demyelination, the sections were stained with Luxon fast blue plus periodic acid Schiff (LFB-PAS). To visualize axonal damage, spinal cords were fixed in 4% paraformaldehyde (maass/volume in PBS, pH 7.4) at 4° C. for at least 48 h. The spinal cords were dissected out from the columns, cut into sections 1-2 mm in length from the sampled thoracic or […] cords, dehydrated and embedded in paraffin blocks. Then, 10 μm thick sections were cut from paraffin blocks and mounted onto pre-cleaned microscope slides. The sections were dewaxed and rehydrated sequentially by xylene (2 min), gradient ethanol (100%, 95%, 85%, 2 min each) and PBS (5 min) and then cooked (120° C.) in antigen unmasking agent Trilogy® (Cell Marque, Hot Springs, Ark.) for 10 min in a pressure steamer. […] The slides were counterstained with hematoxylin for 30-60 s to visualize nuclei, washed with tap water, dehydrated, and mounted with Cytoseal™ XYL mounting medium (Richard-Allan Scientific, Kalamazoo, Mich.). The sections were analyzed by light microscopy after staining and recorded with a digital camera.

[6] = tested on: splenocytes and lymph node cells of WT EAE mice; assay: Ex vivo T cell proliferation to mMOG-35-55, WT mice; settings: G-1 and E2 implanted WT mice, FIG. 2C
Description: (§1) Splenocytes and lymph node cells were harvested ex-vivo from G-1 and E2 implanted mice and cultured in a 96-well flat bottom tissue culture plate at 4×10^5 cells/well in stimulation medium in the presence of APC, irradiated (2500 rad) syngenic thymocytes at a ration of 1:10 (T:APCs) wither with or without mMog 35-55 peptide at varying concentrations. The cells were incubated for 3 days at 37° C. in 7% CO2 and pulsed with 0.5 μCi of [^3H] thymidine (Perkin-Elmer, Boston, Mass.) for the final 18 h of incubation. The cells were harvested onto glass fiber filters, and incorporated radioactivity was measured by a liquid scintillation counter. The cpm values (mean±SD) were calculated from triplicate wells. Stimulation index (SI) was calculated by dividing the experimental cpm by the control cpm.

[7] = tested on: T cells of GPR30KO EAE mice; assay: Ex vivo T cell proliferation to mMOG-35-55, GPR30KO mice; settings: Example IV
Description: as §1

[8] = tested on: PD-1 expression in CD4^+FoxP3^+ T cells; assay: PD-1 expression in CD4+FoxP3+ Treg cells by flow cytometry, WT mice (Example VI)
Description: Splenocytes or lymph node cells were harvested from placebo-, E2- or G-1 treated mice after EAE induction as shown in FIG. 2A and stained for CD4, FoxP3 and PD-1. The expression levels of Pd-1 were analyzed by gating on CD4^+FoxP3^+ cells from placebo-, E2, or G-1 treated WT mice. For membrane staining, 1 million cells were stained at 4° C. in the dark with appropriate Ab dilutions in staining buffer (PBS containing 0.5% BSA and 0.02% sodium azide), Intracellular staining for FoxP3 was performed following the protocol recommended by eBioscience. Briefly, 4 million cells were surface stained following standard procedures. After washing, the cells were fixed overnight and washed twice with 0.5 ml of permeabilization buffer. The cells were co-stained for 15 min with FcBlock (Becton Dickinson, Franklin Lake., NJ) and IgG PerCp (eBioscience, San Diego, Calif.) followed 30 min later with fluorescent-labeled antibodies to FoxP3 (eBioscience, San Diego, Calif.) or isotype control. The cells were then washed twice with 2 ml of permeabilization buffer and once with 1 ml of staining buffer, and re-suspended in staining buffer. Flow cytometry data were collected on LSRII and FACSCalibur flow cytometers (BD Bioscience, Franklin Lakes, N.J.), and analyzed using FlowJo software (Tree Star, Ashland, Oreg.). Data represent 50,000-100,000 events unless otherwise noted. […] The histogram overlay compares the MFI of PD-1 in CD4^+FoxP3^+ T cells from different treatment groups. The bar charts show the average percentages of PD-1^+ CD4^+FoxP3^+ T cells and the average MFI of PD-1 in CD4^+FoxP3^+ T cells from all mice in each grip[/*P<0.05 or **P<0.01 compared to placebo control.

[9] = G-1 injection, 20 μg/mouse/day s.c., 20 days
[10] = GPR30KO, 1.8 mg/40 day G-1 pellet, 29 days
[11] = PD-1KO, 1.8 mg/40 day G-1 pellet, 20 days

For CC(=O)c1ccc2c(c1)C1C=CCC1C(c1cc3c(cc1Br)OCO3)N2 (centres unmarked) [G-1], the CDI ([1]; 0.01 mg G-1 pellet) was 43.8 ± 39.9, the Daily ([1]; 0.01 mg G-1 pellet) was 1.8 ± 1.6 and the Mortality ([1]; 0.01 mg G-1 pellet) was 0/6. The Onset ([1]; 0.01 mg G-1 pellet) was 13.6 ± 1.6, the Peak ([1]; 0.01 mg G-1 pellet) was 3.1 ± 1.7 and the Incidence ([1]; 0.01 mg/40 day release G-1 pellet) was 5/6. The CDI ([1]; 0.1 mg G-1 pellet) was 18.8 ± 28.3, the Daily ([1]; 0.1 mg G-1 pellet) was 0.75 ± 1.3 and the Mortality ([1]; 0.1 mg G-1 pellet) was 0/6. For the same compound, the Onset ([1]; 0.1 mg G-1 pellet) was 16.7 ± 2.3, the Peak ([1]; 0.1 mg G-1 pellet) was 1.5 ± 1.6 and the Incidence ([1]; 0.1 mg/40 day release G-1 pellet) was 3/6. For the same compound, the CDI ([1]; 1.8 mg G-1 pellet) was 0**, the Daily ([1]; 1.8 mg G-1 pellet) was 0** and the Mortality ([1]; 1.8 mg G-1 pellet) was 0/7. For the same compound, the Peak ([1]; 1.8 mg G-1 pellet) was 0**, the Incidence ([1]; 1.8 mg/40 day release G-1 pellet one week before immunization) was 0/7** and the “protection from clinical EAE (in words)” value ([1]; 1.8 mg/40 day release G-1 pellets) was “completely protected”. For the same compound, the “clinical EAE (in words), dose dependence” value ([1]; G-1 pellets 1.8, 0.1 or 0.01 mg/40 day release) was “delayed and ameliorated EAE in a dose-dependent manner”, the “protection from clinical EAE compared with E2” value ([1]; lower doses of G-1 pellets) was “less effective than E2” and the “protection against EAE (in words)” value ([2]; G-1 20 μg/mouse/day s.c. injections) was “partially protective”. For the same compound, the CDI [2, 9] was 19.7 ± 11.3, the Daily [2, 9] was 2.7 ± 1.3 and the Mortality [2, 9] was 1/8. The Onset [2, 9] was 13.7 ± 1.3, the Peak [2, 9] was 3.7 ± 1.6 and the Incidence ([2]; G-1 injection, 20 μg/mouse/day s.c., euthanized 20 days after immunization) was 6/8. The “protection against EAE (in words)” value ([3]; G-1 1.8 mg/40 day pellet, GPR30KO mice) was “completely ineffective”, the CDI [3, 10] was 59.9 ± 13.4 and the Daily [3, 10] was 3.0 ± 0.7. For the same compound, the Mortality [3, 10] was 0/8, the Onset [3, 10] was 13.8 ± 1.2 and the Peak [3, 10] was 4.5 ± 0.7. The Incidence ([3]; GPR30KO, 1.8 mg/40 day release G-1 pellet, concluded 29 days after immunization) was 8/8, the “protection against clinical EAE (in words)” value ([4]; G-1 1.8 mg/40 day pellet, PD-1KO mice) was “failed to protect” and the CDI [4, 11] was 30.6 ± 9.1. For the same compound, the Daily [4, 11] was 2.7 ± 0.8, the Mortality [4, 11] was 1/5 and the Onset [4, 11] was 13.8 ± 1.3. The Peak [4, 11] was 4.8 ± 0.6, the Incidence ([4]; PD-1KO, 1.8 mg/40 day release G-1 pellet, euthanized after 20 days) was 5/5 and the “immune cell infiltration and demyelination in the CNS (H&E, LFB-PAS)” value ([5]; WT mice of FIG. 2A experiment, FIG. 4 upper panels) was “markedly ameliorated; also recorded: reduced”. For the same compound, the “axons in the spinal cords (SMI312 staining)” value ([5]; WT mice, FIG. 4 lower left panel) was “well preserved”, the “axonal damage in spinal cord sections” value ([5]; WT mice, FIG. 4 lower panels) was “reduced the level of axonal damage” and the “SMI32 staining in white matter of spinal cords (ongoing axonal damage)” value ([5]; WT mice, FIG. 4 lower right panel) was “much less SMI32 staining”. The “ex vivo T cell proliferation responses to mMog-35-55 peptide” value [6] was “neither G-1 nor E2 treatment significantly altered”, the “T cell proliferation to mMog-35-55” value [7] was “Neither G-1 nor E2 affected” and the “staining intensity of PD-1 in CD4^+FoxP3^+ cells” value ([8]; spleen of treated WT mice, FIG. 5B) was “strongly enhanced”. The “boosting PD-1 expression in CD4^+FoxP3^+ cells, compared with E2” value ([8]; treated WT mice) was “even more potent than E2” and the “conversion of CD4^+FoxP3^+PD-1^− cells to PD-1^+ cells” value ([8]; treated WT mice, FIG. 5B) was “converted a majority”.
